We go through one substance from patent publication US20110239327A1, “Nematicidal Effects of Cysteine Proteinases and Methods of Use Thereof to Treat Nematode Infestation” (priority 2007, published 2011).

One test has as its system Steinernema feltiae. The test can be described thus: In vitro effect on the beneficial nematode Steinernema feltiae. It is filed as cell-based. On the procedure:
Eggs of M. incognita race 1 from North Carolina State University, USA were collected from tomato-infected roots grown in a glasshouse at 23° C. in a 16:8 h light-dark regime. Eggs were extracted using 1% hypochlorite (NaClO) solution (Hussey and Barker, 1973) or by picking egg masses from tomato-infected roots. Juveniles (J2) were hatched from the eggs and egg masses in water. Heterodera glycines eggs were obtained from soil samples stored in Rothamsted-Research. Second stage juveniles (J2) were hatched from the eggs in water after 10 days. Pratylenchus penetrans were a gift from Dr. Deeren Anne-Marie from the Institute for Agricultural and Fisheries Research, Merelbeke, Belgium. The beneficial nematodes Steinernema feltiae and Heterorhabditis megidis were a gift from Dr. Paul Williams from Becker Underwood.
Control wells were set up which contained J2s and distilled water with 16 mM L-cysteine. Each enzyme concentration and the controls were set up in duplicate (i.e. n=2). The actual number of active J2s per well was counted with the aid of an Olympus inverted microscope, prior to the addition of the enzymes, and then the J2s were incubated in the dark at room temperature for 2 hs, 16 hs, 24 hs or 40 hr. The number of live and dead J2s per well was counted after each enzyme incubation. […]

A further test has as its system M. incognita J2. The test can be described thus: In planta bioassay, two soil applications: nematode infection of tomato roots. As to conditions: two soil applications of enzyme (250 μM papain, 2.2 μM bromelain, 3.3 mM actinidin as printed), soil 16% organic matter, 11 days. The test is classed as in vivo, M. incognita on tomato plants. The method, then:
Oxamyl is supplied as 10% liquid Vydate. 125 μl of a solution 1000 fold dilution of 10% formulation (kindly supplied by DK from NIU) was applied to 5 g of the soil mixture with 16% organic matter, to give a partial nematicidal effect. Soil mixtures were wetted with PBS pH 7.2, 16 hrs prior nematode application of 1000 or 2000 M. incognita J2. Infected soil mixtures were treated with water (control) or 250 μM of active papain in 16 mM of L-cysteine or a combination of Vydate and 250 μM of active papain in 16 mM of L-cysteine. After 48 hs tomato seedlings one month old were added to the treated soils. After 11 days the roots were washed free of soil and chopped to approximately 2 mm pieces. The root pieces of each tomato plant was placed in muslin bags and stained with acid-fuchsin. The stained roots were examined under microscope and all the nematodes present in the roots were counted. […] After 48 hours tomato seedlings one month old were added to the treated soils and after 11 days post infection nematode development inside root tissues was assessed as described above.
The avermectins are macrocyclic lactones produced by the actinomycete Streptomyces avermitilis. […] After 48 hs tomato seedlings one month old were added to the treated soils and after 11 days post infection nematode development inside root tissues was assessed as described above. […]

For the substance stem bromelain, the “bromelain concentrations at which no effect was observed” value in the test on Steinernema feltiae is “below 280 uM”. The “effect on S. feltiae movement” value in the test on Steinernema feltiae (high concentrations of bromelain) is recorded as “affected S. feltiae movement slightly”. Further, the “reduction of nematode infection of plants” value in the test with M. incognita J2 came out at 95%.
